Results reported in article PMC9781827, “Isolation and Identification of Anti-Inflammatory Peptide from Goose Blood Hydrolysate to Ameliorate LPS-Mediated Inflammation and Oxidative Stress in RAW264.7 Macrophages” (Molecules, 2022).

What was measured:
RAW264.7 macrophages = assay: Viability / cytotoxicity of RAW264.7 macrophages; type: cell-based; settings: for viability of RAW264.7 macrophages: 3.0 μg/mL LPS, mean ± S.D., repeated three times
Protocol: The method of RAW264.7 macrophage culture and treatments were based on the study of Li et al.. RAW264.7 macrophages (Lot number: BH0799, Chinese Academy of Sciences, Shanghai, China) were grown in DMEM-F medium (1:1) containing 3.15 g/L glucose, 0.365 g/L l-glutamine, 3.57 g/L HEPES, 10% FBS and 1% antibiotics at 37 °C in an atmosphere with 5% CO2 and 90% relative humidity. […] The optimal concentration of LPS for inducing inflammation in the RAW264.7 macrophage was ensured according to cell viability. Furthermore, RAW264.7 macrophages were cultured with different concentrations of GBP (100 μg/mL, 200 μg/mL and 400 μg/mL) to evaluate the cytotoxicity of GBP as described above. The ability of GBP to protect RAW264.7 macrophages was evaluated. In the LPS + GBP group, the macrophages medium supplemented with 200 μg/mL GBP was incubated for 2 h. Then, the macrophages medium was substituted with a macrophages medium supplemented with 1.0 μg/mL LPS and incubated for 24 h. In the LPS group, standard macrophages medium incubated for 2 h. Then, the standard macrophages medium was substituted with macrophages medium supplemented with 1.0 μg/mL LPS and incubated for 24 h. In the CTRL group, standard macrophages medium incubated for 2 h, Then, the standard macrophages medium was replaced with a new one and incubated for 24 h. Finally, the macrophages medium and macrophages were collected for further analysis.

Keap-1, NrF2, HO-1 = assay: Western blot of Keap-1, NrF2, HO-1 in RAW264.7 macrophages; type: cell-based; settings: stimulation with LPS alone
Protocol: RAW264.7 macrophages were washed with cold PBS and homogenized with two small magnetic beads (2 mm) and 10× volume of RIPA buffer containing 1% protease inhibitors for 60 s. Then the supernatant was collected after centrifuging at 12,000× g for 10 min at 4 °C, which was the total protein solution. The concentration of protein in the total protein solution was measured by BCA kits. The protein concentration of the supernatant was diluted to 2.0 mg/mL and mixed with an equal volume of buffer (0.25 mol/L Tris-HCl buffer, pH 6.8, containing 4% SDS and 20% glycerol with 20 mmol/L 2-mercaptoethanol). The stacking gel and separating gel were made of 5% (w/v) and 10% (w/v) polyacrylamide, respectively. Electrophoresis was carried out at 80 V until the dye front reached the bottom of the stacking gel, and the gel was run at 120 V until the dye front reached the bottom of the separating gel (165-8001, Bio-Rad Mini-PROTEAN Tetra Electrophoresis System). The PVDF membrane was covered on the gel and transferred membrane at 300 mA for 30 min. The membrane was moved into a decolorization shaker with 5% skim milk (0.5% TBST) and blocked for 1 h at room temperature. […] The film was scanned and archived, processed and decolorized by Photoshop, and the optical density value of the target band was analysed by ImageJ software processing system.

lipopolysaccharide [LPS]
viability of RAW264.7 macrophages (RAW264.7 macrophages; 24 h, Figure 1A): approximately 51.51 ± 4.29% | viability of RAW264.7 macrophages (RAW264.7 macrophages; LPS group of Figure 1C (CTRL 100 ± 7.35%)): 51.57 ± 7.07% | LPS concentration resulting in 50% RAW264.7 macrophages death (RAW264.7 macrophages; 24 h, estimated from viability at 3.0 μg/mL): around 3.0 μg/mL | protein expression level of Keap-1 (Keap-1, NrF2, HO-1): significantly increased | protein expression levels of NrF2 and HO-1 (Keap-1, NrF2, HO-1): decreased
